# Measurements as given in paper PMC7565988, “Insight into the Anticancer Activity of Copper(II) 5-Methylenetrimethylammonium-Thiosemicarbazonates and Their Interaction with Organic Cation Transporters” (Biomolecules, 2020).
# Columns and labels:
# Assay in all cases: [3H]-MPP+ uptake inhibition assay in HEK-293 cells
# Type in all cases: cell-based
# OCT3 = biological target: T1, OCT3 (Homo sapiens, UniProt O75751); conditions: HEK cells stably expressing human OCT3; 10 min uptake
# T1 construct: expressed in transfected cells
# T1 sequence (O75751 1-556): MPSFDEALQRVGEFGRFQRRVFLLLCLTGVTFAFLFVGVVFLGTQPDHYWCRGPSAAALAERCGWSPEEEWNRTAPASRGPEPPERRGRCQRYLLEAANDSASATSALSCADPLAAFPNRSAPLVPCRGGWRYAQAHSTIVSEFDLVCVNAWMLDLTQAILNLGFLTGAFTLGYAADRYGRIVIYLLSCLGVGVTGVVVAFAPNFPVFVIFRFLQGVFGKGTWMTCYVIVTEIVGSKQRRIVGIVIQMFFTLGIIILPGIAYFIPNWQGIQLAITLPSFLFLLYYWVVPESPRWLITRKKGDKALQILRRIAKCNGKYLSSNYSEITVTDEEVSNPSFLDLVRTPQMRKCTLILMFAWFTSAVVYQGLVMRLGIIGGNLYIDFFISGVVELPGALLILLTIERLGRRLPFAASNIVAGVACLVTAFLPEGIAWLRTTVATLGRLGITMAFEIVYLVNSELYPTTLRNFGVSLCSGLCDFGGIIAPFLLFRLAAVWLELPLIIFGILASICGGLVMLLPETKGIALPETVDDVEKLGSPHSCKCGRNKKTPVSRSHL
# Description: (§1) HEK–293 cells (LGC Standards GmbH, Germany) stably expressing human isoforms of wild type organic cation transporters 1–3 (OCT1–3) were cultured in Dulbecco’s modified Eagle’s medium (DMEM; Sigma-Aldrich) with high glucose (4.5 g/L) and L-glutamine (584 mg/L) supplemented with 10% foetal calf serum (FCS; Biowest) and penicillin/streptomycin mixture (50 mg/L; Sigma/Aldrich) at 37 °C in a humidified atmosphere (5% CO2). The selection reagent was Geneticin (150 U/mL; Merck, Germany) for all three cell lines. Cells were seeded onto poly-D-lysine (0.05 mg/mL; Sigma-Aldrich) precoated clear bottom Corning 96 well white assay plate (Sigma-Aldrich) at the density of 4 × 10^4 cells per well 24 h prior to the experiment.
# (§2) The assay was performed as previously described with slight modification. Briefly, on the day of the experiment, cells were washed once with 100 µL Krebs-HEPES buffer (KHB; 10 mM HEPES, 120 mM NaCl, 3 mM KCl, 2 mM CaCl2·2H2O, 2 mM MgCl2·6H2O, 5 mM D-(+)- glucose, pH 7.3) at room temperature. Cells were preincubated for 10 min in 50 µL of RT KHB containing increasing concentrations of tested compounds previously dissolved in dimethyl sulfoxide (DMSO; final concentration in working solution was 1%). After that, the preincubation solution was quickly removed and replaced with 50 µL of uptake solution containing the aforementioned components with the addition of 50 nM [^3H]-1-methyl-4-phenylpyridinium ([^3H]-MPP^+; 60 Ci/mmol; American Radiolabeled Chemicals, Saint Louis, MO, USA). After the 10 min uptake at RT, the transport was stopped by washing cells with 100 µL of ice-cold KHB and adding 200 µL of Ultima GoldTM XR scintillation cocktail (PerkinElmer, MA, USA). The plates were shaken, placed into Wallac 1450 MicroBeta TriLux Liquid Scintillation Counter and Lumi (GMI, Ramsey, MN, USA) and the released radioactivity was measured for 3 min. Nonspecific [^3H]-MPP^+ uptake was measured in the presence of 100 µM decynium-22 and the data were plotted as a percentage of uptake in the presence of 1% DMSO from which the value of the nonspecific uptake was subtracted. Nonlinear regression analysis (GraphPad Prism version 5.0, GraphPad Software, San Diego, CA, USA) was used for calculation of IC50 values.
# OCT1 = biological target: T2, OCT1 (Homo sapiens, UniProt O15245); conditions: 10 min uptake; for IC50: HEK cells stably expressing human OCT1
# T2 construct: expressed in transfected cells
# T2 sequence (O15245 1-554): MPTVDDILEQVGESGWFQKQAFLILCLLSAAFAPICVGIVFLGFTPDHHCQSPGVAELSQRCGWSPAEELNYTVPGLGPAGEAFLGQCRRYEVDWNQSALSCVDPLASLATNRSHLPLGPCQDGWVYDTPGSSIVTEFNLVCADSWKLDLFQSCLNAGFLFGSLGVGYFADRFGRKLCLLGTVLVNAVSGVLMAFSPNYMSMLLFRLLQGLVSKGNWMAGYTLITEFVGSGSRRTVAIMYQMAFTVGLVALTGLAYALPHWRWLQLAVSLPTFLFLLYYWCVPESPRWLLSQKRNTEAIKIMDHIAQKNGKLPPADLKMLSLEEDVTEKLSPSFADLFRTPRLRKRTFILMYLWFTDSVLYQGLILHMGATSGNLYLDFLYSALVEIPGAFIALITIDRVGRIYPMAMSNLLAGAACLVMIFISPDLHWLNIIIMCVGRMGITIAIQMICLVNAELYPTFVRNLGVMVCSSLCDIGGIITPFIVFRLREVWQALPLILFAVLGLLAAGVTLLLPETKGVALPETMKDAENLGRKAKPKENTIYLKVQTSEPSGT
# Description: as §1, §2
# OCT2 = biological target: T3, OCT2 (Homo sapiens, UniProt O15244); conditions: for IC50: HEK cells stably expressing human OCT2, 10 min uptake; for interaction with OCT2: [3H]-MPP+ uptake inhibition in HEK OCT2 cells
# T3 construct: expressed in transfected cells
# T3 sequence (O15244 1-555): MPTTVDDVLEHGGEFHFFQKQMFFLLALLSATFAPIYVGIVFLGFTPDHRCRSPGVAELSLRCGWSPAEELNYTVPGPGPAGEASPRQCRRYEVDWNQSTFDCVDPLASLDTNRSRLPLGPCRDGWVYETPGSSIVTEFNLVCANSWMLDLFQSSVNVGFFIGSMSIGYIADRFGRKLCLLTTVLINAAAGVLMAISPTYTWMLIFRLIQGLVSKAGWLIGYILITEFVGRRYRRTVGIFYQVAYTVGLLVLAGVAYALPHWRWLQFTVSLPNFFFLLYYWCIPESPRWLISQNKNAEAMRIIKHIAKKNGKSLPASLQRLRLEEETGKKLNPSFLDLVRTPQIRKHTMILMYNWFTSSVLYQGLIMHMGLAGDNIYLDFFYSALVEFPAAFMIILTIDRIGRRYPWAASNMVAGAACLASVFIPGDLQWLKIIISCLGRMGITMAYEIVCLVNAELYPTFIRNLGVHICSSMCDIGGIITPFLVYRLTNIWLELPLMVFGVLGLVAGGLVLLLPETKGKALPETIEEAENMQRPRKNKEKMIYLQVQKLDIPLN
# Description: as §1, §2
IC50 (OCT3),IC50 (OCT1),IC50 (OCT2),Compound,"IC50 at 10 min (OCT1; HEK-293 cells stably expressing human OCT1, pH 7.3, probe [3H]-MPP+ (50 nM))",interaction with OCT2 (OCT2)
63.1 ± 8.9 µM,169 ± 26.2 µM,236 ± 97.1 µM,CCNC(=S)N/N=C/c1cc(C[N+](C)(C)C)ccc1O [[H2L^Et]Cl],–,–
27.8 ± 5 µM,119 ± 50 µM,371 ± 123 µM,C[N+](C)(C)Cc1ccc(O)c(/C=N/NC(=S)Nc2ccccc2)c1 [[H2L^Ph]Cl],–,–
103 ± 23.4 µM,391 ± 40 µM,> 4000 µM,CNC(=S)N/N=C/c1cc(C[N+](C)(C)C)ccc1O [[H2L^Me]Cl],–,no interaction

Compound,IC50 (OCT3),IC50 (OCT1),IC50 (OCT2),"IC50 at 10 min (OCT1; HEK-293 cells stably expressing human OCT1, pH 7.3, probe [3H]-MPP+ (50 nM))",interaction with OCT2 (OCT2)
C[N+](C)(C)Cc1ccc(O)c(/C=N/NC(N)=S)c1 [[H2L^H]Cl],105 ± 32.8 µM,740 ± 195 µM,> 4000 µM,740 µM,no interaction
